Measured values published in US9012489B2, “Phenyl-3-aza-bicyclo[3.1.0]hex-3-yl-methanones and the use thereof as medicament” (Boehringer Ingelheim International GmbH, priority 2011, dated 2015).

Molecular target: T1, GlyT1 transporter (Homo sapiens, UniProt P48067)
T1 construct: endogenously expressing the GlyT1 transporter; host or cells: SK-N-MC human neuroblastoma cells
T1 sequence (P48067 1-706): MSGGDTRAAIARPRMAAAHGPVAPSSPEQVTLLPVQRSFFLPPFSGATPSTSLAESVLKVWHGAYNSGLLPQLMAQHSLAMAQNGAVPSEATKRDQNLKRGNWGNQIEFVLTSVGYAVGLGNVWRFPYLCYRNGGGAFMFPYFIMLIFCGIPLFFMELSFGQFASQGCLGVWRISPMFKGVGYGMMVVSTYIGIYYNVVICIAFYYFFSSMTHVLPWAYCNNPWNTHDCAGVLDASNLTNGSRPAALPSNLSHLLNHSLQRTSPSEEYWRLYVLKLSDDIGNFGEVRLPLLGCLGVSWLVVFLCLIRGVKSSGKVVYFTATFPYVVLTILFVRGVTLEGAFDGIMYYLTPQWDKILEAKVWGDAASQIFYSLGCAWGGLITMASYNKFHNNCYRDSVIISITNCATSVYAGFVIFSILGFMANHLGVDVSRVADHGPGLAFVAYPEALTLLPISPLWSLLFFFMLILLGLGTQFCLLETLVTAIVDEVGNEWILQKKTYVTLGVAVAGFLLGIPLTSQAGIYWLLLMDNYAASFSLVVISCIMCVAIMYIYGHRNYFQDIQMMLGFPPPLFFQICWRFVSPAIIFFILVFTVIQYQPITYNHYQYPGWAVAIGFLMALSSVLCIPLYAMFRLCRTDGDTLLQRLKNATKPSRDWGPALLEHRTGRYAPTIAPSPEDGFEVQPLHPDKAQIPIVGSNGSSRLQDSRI
Test: GlyT1 assay: 3H-glycine uptake into SK-N-MC cells (Cytostar-T format)
Type: cell-based
Settings: glycine uptake in human SK-N-MC cells endogenously expressing GlyT1; 500 nM glycine, 1% DMSO, signal recorded over 60 min
Procedure, shortened: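 Uptake slopes, measured over 60 min from the linear kinetic range, give IC50 from 8 compound concentrations, with 10 μM RG-1678 setting background. Substrate is 500 nM glycine (250 nM ³H, 250 nM unlabelled) in HBSS/5 mM alanine, 1% DMSO, after roughly 5-10 min compound preincubation. Cells: confluent SK-N-MC endogenously expressing human GlyT1.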

IC50 [nM] | SMILES
387 | Cc1c(C23CC2CN(C(=O)c2cc(S(C)(=O)=O)ccc2O[C@H](C)C(F)(F)F)C3)noc1C(F)(F)F (single isomer, unassigned) [Example 162]
28 | Cc1c(C23CC2CN(C(=O)c2cc(S(C)(=O)=O)ccc2O[C@@H](C)C(F)(F)F)C3)noc1C(F)(F)F (single isomer, unassigned) [Example 164]
394 | Cc1c(C23CC2CN(C(=O)c2cc(S(C)(=O)=O)ccc2O[C@@H](C)C(F)(F)F)C3)noc1C(F)(F)F (single isomer, unassigned) [Example 165]

The remaining lines, values behind:

SMILES | IC50 [nM]
C[C@H](Oc1ccc(S(C)(=O)=O)cc1C(=O)N1CC2(C)CC2(c2noc(C(F)(F)F)n2)C1)C(F)(F)F (single isomer, unassigned) [Example 158, [5-Methanesulfonyl-2-(2,2,2-trifluoro-1-methyl-ethoxy)-phenyl]-[1-methyl-5-(5-trifluoromethyl-[1,2,4]oxadiazol-3-yl)-3-aza-bicyclo[3.1.0]hex-3-yl]-methanone] | 85
C[C@H](Oc1ccc(S(C)(=O)=O)cc1C(=O)N1CC2(C)CC2(c2noc(C(F)(F)F)n2)C1)C(F)(F)F (single isomer, unassigned) [Example 159, [5-Methanesulfonyl-2-(2,2,2-trifluoro-1-methyl-ethoxy)-phenyl]-[1-methyl-5-(5-trifluoromethyl-[1,2,4]oxadiazol-3-yl)-3-aza-bicyclo[3.1.0]hex-3-yl]-methanone] | 953
Cc1c(C23CC2CN(C(=O)c2cc(S(C)(=O)=O)ccc2O[C@H](C)C(F)(F)F)C3)noc1C(F)(F)F (single isomer, unassigned) [Example 161] | 9
CC(Oc1ccc(C#N)cc1C(=O)N1CC2CC2(c2noc(C(F)(F)F)n2)C1)C(F)(F)F (stereo not shown) [Example 39, 4-(2,2,2-Trifluoro-1-methyl-ethoxy)-3-[1-(5-trifluoromethyl-[1,2,4]oxadiazol-3-yl)-3-aza-bicyclo[3.1.0]hexane-3-carbonyl]-benzonitrile] | 143
